Assay results published in patent US9493396B2, “Substituted naphthalene compounds as calcium sensing receptor modulators” (LUPIN ATLANTIS HOLDINGS SA, priority 2013, dated 2016).
Counter-ions that a name gives are not always drawn.

The compounds below were run against T1, Calcium sensing receptor (hCaSR) (Homo sapiens, UniProt P41180) (assay: In-vitro assay of calcimimetics through modulation of calcium sensing receptor (intracellular calcium increase, FLIPR)). Details: stably transfected HEK293 cells expressing hCaSR; Fluo4NW dye; 0.3 mM CaCl2; 8-point assay; read-out: EC50 in range.
T1 construct: expressed in transfected cells; host or cells: HEK293 (stably transfected)
T1 sequence (P41180 20-1078): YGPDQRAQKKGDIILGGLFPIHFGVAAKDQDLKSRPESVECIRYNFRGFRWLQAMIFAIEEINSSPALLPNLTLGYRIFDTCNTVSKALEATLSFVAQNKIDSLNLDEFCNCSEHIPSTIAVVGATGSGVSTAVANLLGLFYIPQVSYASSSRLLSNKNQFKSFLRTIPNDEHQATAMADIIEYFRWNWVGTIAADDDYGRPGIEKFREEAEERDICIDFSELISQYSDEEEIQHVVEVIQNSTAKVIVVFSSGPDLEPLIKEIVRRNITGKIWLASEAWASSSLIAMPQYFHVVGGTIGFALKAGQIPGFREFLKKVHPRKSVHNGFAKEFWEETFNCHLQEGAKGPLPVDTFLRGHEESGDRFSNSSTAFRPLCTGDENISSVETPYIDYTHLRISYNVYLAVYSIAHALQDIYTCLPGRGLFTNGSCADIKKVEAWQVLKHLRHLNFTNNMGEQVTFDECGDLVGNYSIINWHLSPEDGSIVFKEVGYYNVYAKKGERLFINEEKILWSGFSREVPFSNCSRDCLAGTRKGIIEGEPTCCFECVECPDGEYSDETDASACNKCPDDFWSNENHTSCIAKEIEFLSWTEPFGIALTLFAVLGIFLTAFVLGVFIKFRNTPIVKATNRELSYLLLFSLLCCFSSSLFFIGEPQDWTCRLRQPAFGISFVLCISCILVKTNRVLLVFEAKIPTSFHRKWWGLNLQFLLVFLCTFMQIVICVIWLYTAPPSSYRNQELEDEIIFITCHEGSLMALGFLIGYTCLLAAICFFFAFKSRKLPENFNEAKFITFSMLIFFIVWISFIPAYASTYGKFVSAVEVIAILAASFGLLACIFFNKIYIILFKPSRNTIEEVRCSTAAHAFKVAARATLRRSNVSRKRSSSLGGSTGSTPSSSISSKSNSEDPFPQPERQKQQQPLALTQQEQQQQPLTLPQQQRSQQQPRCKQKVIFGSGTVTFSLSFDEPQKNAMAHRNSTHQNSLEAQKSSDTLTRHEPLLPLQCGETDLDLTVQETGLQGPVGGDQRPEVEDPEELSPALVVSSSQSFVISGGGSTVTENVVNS
Type: cell-based
Method: In-Vitro Assay Method of Calcimimetics Through Modulation of Calcium Sensing Receptor (CaSR): The ability of the compounds to modulate Calcium sensing receptor is determined by measuring an increase in intracellular calcium [Ca^2+]i. Stably transfected HEK293 cells expressing hCaSR_pTriEx-3 hygro vector are developed. Cells are grown overnight on a 96-well plate to 80% confluency in Ham's F12 containing 20% FBS at 37° C., 5% CO2. Subsequently, cells are washed extensively with 20 mM HEPES buffer containing 126 mM […], 1 mM MgCl2 and 4 mM KCl to remove serum components that might interfere with the assay. Cells are loaded with calcium sensing Fluo4NW dye in HEPES base buffer containing 0.1% BSA and 1 mg/ml glucose for 30 minutes to measure changes in intracellular calcium. The activities of the compounds are measured in FLIPR using 0.3 mM CaCl2 in 20 mM HEPES base buffer. The effectiveness of the compound to modulate receptor activity is determined by calculating the EC50 responses for that compound in an 8-point assay and plotted using GraphPad Prism 5.

Row | EC50 [nM] | SMILES
1 | < 20 | COC(=O)c1cc(-c2cc(CN[C@H](C)c3cccc(OC)c3)cc3ccccc23)ccc1F [Example 45, (R)-methyl 2-fluoro-5-(3-(((1-(3-methoxyphenyl)ethyl)amino)methyl)naphthalen-1-yl)benzoate hydrochloride]
2 | < 20 | COc1cccc([C@@H](C)NCc2cc(-c3ccc(C)c(C(=O)O)c3)c3ccccc3c2)c1 [Example 90, (R)-5-(3-(((1-(3-Methoxyphenyl)ethyl)amino)methyl)naphthalen-1-yl)-2-methylbenzoic acid hydrochloride]
3 | < 20 | CCOc1cccc([C@@H](C)NCc2cc(-c3ccc(C)c(C(=O)O)c3)c3ccccc3c2)c1 [Example 91, hydrochloride]
4 | 50 to 400 | COc1cc([C@@H](C)NCc2cc(-c3ccc(C)c(C(=O)O)c3)c3ccccc3c2)ccc1F [Example 93, (R)-5-(3-(((1-(4-Fluoro-3-methoxyphenyl)ethyl)amino)methyl)naphthalen-1-yl)-2-methylbenzoic acid hydrochloride]
5 | 50 to 400 | Cc1ccc(-c2cc(CN[C@H](C)c3cccc(Cl)c3)cc3ccccc23)cc1C(=O)O [Example 94, (R)-5-(3-(((1-(3-Chlorophenyl)ethyl)amino)methyl)naphthalen-1-yl)-2-methylbenzoic acid hydrochloride]
6 | 50 to 400 | COc1cc([C@@H](C)NCc2cc(-c3ccc(F)c(C(=O)O)c3)c3ccccc3c2)ccc1F [Example 96, (R)-2-Fluoro-5-(3-(((1-(4-fluoro-3-methoxyphenyl)ethyl)amino)methyl)naphthalen-1-yl)benzoic acid hydrochloride]
7 | < 20 | COc1cccc([C@@H](C)NCc2cc(-c3ccc(F)c(C(=O)O)c3)c3ccccc3c2)c1 [Example 97, (R)-2-Fluoro-5-(3-(((1-(3-methoxyphenyl)ethyl)amino)methyl)naphthalen-1-yl)benzoic acid hydrochloride]
8 | < 20 | CCOc1cccc([C@@H](C)NCc2cc(-c3ccc(F)c(C(=O)O)c3)c3ccccc3c2)c1 [Example 98, hydrochloride]
9 | 20 to 50 | COc1cccc([C@@H](C)NCc2cc(-c3ccc(Cl)c(C(=O)O)c3)c3ccccc3c2)c1 [Example 99, (R)-2-Chloro-5-(3-(((1-(3-methoxyphenyl)ethyl)amino)methyl)naphthalen-1-yl)benzoic acid hydrochloride]
10 | 20 to 50 | CCOc1cccc([C@@H](C)NCc2cc(-c3ccc(Cl)c(C(=O)O)c3)c3ccccc3c2)c1 [Example 100, (R)-2-Chloro-5-(3-(((1-(3-ethoxyphenyl)ethyl)amino)methyl)naphthalen-1-yl)benzoic acid hydrochloride]
11 | 50 to 400 | COc1cccc([C@@H](C)NCc2cc(-c3cccc(C(=O)O)c3C)c3ccccc3c2)c1 [Example 101, (R)-3-(3-(((1-(3-Methoxyphenyl)ethyl)amino)methyl)naphthalen-1-yl)-2-methylbenzoic acid hydrochloride]
12 | 20 to 50 | COc1cccc([C@@H](C)NCc2cc(-c3cccc(C(=O)O)c3F)c3ccccc3c2)c1 [Example 103, (R)-2-Fluoro-3-(3-(((1-(3-methoxyphenyl)ethyl)amino)methyl)naphthalen-1-yl)benzoic acid hydrochloride]
13 | 50 to 400 | COc1cccc([C@@H](C)NCc2cc(-c3ccc(OC)c(C(=O)O)c3)c3ccccc3c2)c1 [Example 104, (R)-2-Methoxy-5-(3-(((1-(3-methoxyphenyl)ethyl)amino)methyl)naphthalen-1-yl)benzoic acid hydrochloride]
14 | 50 to 400 | COc1cccc([C@@H](C)NCc2cc(-c3ccc(C(C)C)c(C(=O)O)c3)c3ccccc3c2)c1 [Example 105, (R)-2-Isopropyl-5-(3-(((1-(3-methoxyphenyl)ethyl)amino)methyl)naphthalen-1-yl)benzoic acid hydrochloride]
15 | < 20 | COc1cccc([C@@H](C)NCc2cc(-c3cccc(C(=O)O)c3)c3ccccc3c2)c1 [Example 108, (R)-3-(3-(((1-(3-Methoxyphenyl)ethyl)amino)methyl)naphthalen-1-yl)benzoic acid hydrochloride]
16 | < 20 | COc1cccc([C@@H](C)NCc2cc(-c3ccc(F)c(CCC(=O)O)c3)c3ccccc3c2)c1 [Example 110, hydrochloride]
17 | 50 to 400 | COCCOc1cccc([C@@H](C)NCc2cc(-c3ccc(F)c(C(=O)O)c3)c3ccccc3c2)c1 [Example 113, (R)-2-Fluoro-5-(3-(((1-(3-(2-methoxyethoxy)phenyl)ethyl)amino)methyl)naphthalen-1-yl) benzoic acid hydrochloride]

The remaining lines, values behind:

Row | SMILES | EC50 [nM]
18 | CC(N[C@H](C)c1cccc(Cl)c1)c1cc(-c2ccc(OC(F)(F)F)cc2)c2ccccc2c1 (stereo partly drawn) [Example 20, (1R)-1-(3-Chlorophenyl)-N-(1-(4-(4-(trifluoromethoxy)phenyl)naphthalen-2-yl)ethyl)ethanamine hydrochloride] | < 20
19 | COc1cccc([C@@H](C)NC(C)c2cc(-c3ccc(OC(F)F)cc3)c3ccccc3c2)c1 (stereo partly drawn) [Example 21, 1-(4-(4-(Difluoromethoxy)phenyl)naphthalen-2-yl)-N-((R)-1-(3-methoxyphenyl)ethyl)ethanamine hydrochloride] | < 20
20 | CC(N[C@H](C)c1cccc(Cl)c1)c1cc(-c2ccc(OC(F)F)cc2)c2ccccc2c1 (stereo partly drawn) [Example 22, (1R)-1-(3-Chlorophenyl)-N-1-(4-(4-(difluoromethoxy)phenyl)naphthalen-2-yl)ethyl)ethanamine hydrochloride] | < 20
21 | Cc1ccc(-c2cc(CN[C@H](C)c3cccc4ccccc34)cc3ccccc23)cc1C(=O)O [Example 89, (R)-2-Methyl-5-(3-(((1-(naphthalen-1-yl)ethyl)amino)methyl)naphthalen-1-yl) benzoic acid] | 20 to 50
22 | CCCOc1cccc([C@@H](C)NCc2cc(-c3ccc(C)c(C(=O)O)c3)c3ccccc3c2)c1 [Example 92, (R)-2-Methyl-5-(3-(((1-(3-propoxyphenyl)ethyl)amino)methyl)naphthalen-1-yl)benzoic acid hydrochloride] | 50 to 400
23 | Cc1ccc(-c2cc(CN[C@H](C)c3cccc(OCC(F)F)c3)cc3ccccc23)cc1C(=O)O [Example 95, (R)-5-(3-(((1-(3-(2,2-Difluoroethoxy)phenyl)ethyl)amino)methyl)naphthalen-1-yl)-2-methylbenzoic acid hydrochloride] | 50 to 400
24 | C[C@@H](NCc1cc(-c2ccc(C(=O)O)cc2)c2ccccc2c1)c1cccc2ccccc12 [Example 106, (R)-4-(3-(((1-(Naphthalen-1-yl)ethyl)amino)methyl)naphthalen-1-yl)benzoic acid hydrochloride] | 50 to 400
25 | COc1cc([C@@H](C)NCc2cc(-c3ccc(C(=O)O)cc3)c3ccccc3c2)ccc1F [Example 107, (R)-4-(3-(((1-(4-Fluoro-3-methoxyphenyl)ethyl)amino)methyl)naphthalen-1-yl)benzoic acid hydrochloride] | 20 to 50
26 | COc1cccc([C@@H](C)NCc2cc(-c3ccc(C)c(C(=O)O)c3C)c3ccccc3c2)c1 [Example 109, (R)-3-(3-(((1-(3-Methoxyphenyl)ethyl)amino)methyl)naphthalen-1-yl)-2,6-dimethylbenzoic acid hydrochloride] | 50 to 400
27 | COc1cccc([C@@H](C)NCc2cc(-c3ccc(C(C)(C)C(=O)O)cc3)c3ccccc3c2)c1 [Example 111, (R)-2-(4-(3-(((1-(3-Methoxyphenyl)ethyl)amino)methyl)naphthalen-1-yl)phenyl)-2-methylpropanoic acid hydrochloride] | 50 to 400
28 | COc1cccc([C@@H](C)NCc2cc(-c3cccc(C(C)(C)C(=O)O)c3)c3ccccc3c2)c1 [Example 112, (R)-2-(3-(3-(((1-(3-Methoxyphenyl)ethyl)amino)methyl)naphthalen-1-yl)phenyl)-2-methylpropanoic acid hydrochloride] | 50 to 400
